From US8691753B2 (priority 2009, dated 2014)
Read-outs that look alike come from different tables or passages of the source.

Key:
Format in all cases: biochemical
MMP-14h = MMP-14h (Homo sapiens (Human), UniProt P50281); experiment: Inhibition constant (Ki) on MMP-14h; settings: human MMP-14
Outline: (§1)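 Following an established literature procedure, each compound's inhibition constant was measured on the human form of each enzyme.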

MMP-3h = MMP-3h (Homo sapiens (Human), UniProt P08254); experiment: Inhibition constant (Ki) on MMP-3h; settings: human MMP-3
Outline: as §1

MMP-12h = MMP-12h (Homo sapiens (Human), UniProt P39900); experiment: Inhibition constant (Ki) on MMP-12h; settings: human MMP-12
MMP-9h = MMP-9h (Homo sapiens (Human), UniProt P14780); experiment: Inhibition constant (Ki) on MMP-9h; settings: human MMP-9
Outline: as §1

MMP-2h = MMP-2h (Homo sapiens (Human), UniProt P08253); experiment: Inhibition constant (Ki) on MMP-2h; settings: human MMP-2
Outline: as §1

MMP-8h = MMP-8h (Homo sapiens (Human), UniProt P22894); experiment: Inhibition constant (Ki) on MMP-8h; settings: human MMP-8
MMP-10h = MMP-10h (Homo sapiens (Human), UniProt P09238); experiment: Inhibition constant (Ki) on MMP-10h; settings: human MMP-10
MMP-13h = MMP-13h (Homo sapiens (Human), UniProt P45452); experiment: Inhibition constant (Ki) on MMP-13h; settings: human MMP-13
Outline: as §1

Sequence of MMP-10h (P09238 99-476): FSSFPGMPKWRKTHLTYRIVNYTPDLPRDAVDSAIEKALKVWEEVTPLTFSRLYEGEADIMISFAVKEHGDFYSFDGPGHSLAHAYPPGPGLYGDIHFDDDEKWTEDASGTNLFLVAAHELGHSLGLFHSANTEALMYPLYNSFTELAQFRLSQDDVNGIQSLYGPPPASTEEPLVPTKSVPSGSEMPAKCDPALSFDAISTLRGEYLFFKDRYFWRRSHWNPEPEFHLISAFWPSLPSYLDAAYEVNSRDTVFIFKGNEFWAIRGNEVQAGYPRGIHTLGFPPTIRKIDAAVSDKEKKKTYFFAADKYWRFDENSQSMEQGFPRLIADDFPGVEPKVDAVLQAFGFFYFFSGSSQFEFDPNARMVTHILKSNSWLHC
Sequence of MMP-2h (P08253 110-660): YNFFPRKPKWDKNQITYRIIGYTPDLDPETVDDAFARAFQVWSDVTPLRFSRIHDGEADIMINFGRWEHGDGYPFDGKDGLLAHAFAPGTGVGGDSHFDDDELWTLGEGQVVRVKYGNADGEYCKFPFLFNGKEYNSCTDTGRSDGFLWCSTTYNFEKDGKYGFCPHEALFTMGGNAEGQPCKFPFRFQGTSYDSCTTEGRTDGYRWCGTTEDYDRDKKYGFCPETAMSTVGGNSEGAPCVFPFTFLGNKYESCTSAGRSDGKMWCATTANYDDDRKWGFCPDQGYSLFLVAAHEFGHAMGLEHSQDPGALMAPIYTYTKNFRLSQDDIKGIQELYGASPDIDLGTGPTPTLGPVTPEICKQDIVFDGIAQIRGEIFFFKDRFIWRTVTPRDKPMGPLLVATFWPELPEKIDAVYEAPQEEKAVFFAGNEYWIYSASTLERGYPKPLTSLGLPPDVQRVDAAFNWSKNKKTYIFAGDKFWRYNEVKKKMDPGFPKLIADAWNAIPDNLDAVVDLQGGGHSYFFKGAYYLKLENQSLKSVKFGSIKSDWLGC
Sequence of MMP-12h (P39900 106-470): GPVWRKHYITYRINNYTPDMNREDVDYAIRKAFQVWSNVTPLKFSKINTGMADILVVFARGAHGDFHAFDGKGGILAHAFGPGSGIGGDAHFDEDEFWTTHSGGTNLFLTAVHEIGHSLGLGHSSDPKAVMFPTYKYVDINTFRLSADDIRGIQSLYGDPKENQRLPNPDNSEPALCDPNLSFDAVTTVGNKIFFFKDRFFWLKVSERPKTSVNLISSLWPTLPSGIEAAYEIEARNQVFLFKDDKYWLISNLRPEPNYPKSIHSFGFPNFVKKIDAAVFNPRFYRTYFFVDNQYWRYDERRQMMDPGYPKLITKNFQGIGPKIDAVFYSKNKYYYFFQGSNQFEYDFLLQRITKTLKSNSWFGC
Sequence of MMP-9h (P14780 94-707): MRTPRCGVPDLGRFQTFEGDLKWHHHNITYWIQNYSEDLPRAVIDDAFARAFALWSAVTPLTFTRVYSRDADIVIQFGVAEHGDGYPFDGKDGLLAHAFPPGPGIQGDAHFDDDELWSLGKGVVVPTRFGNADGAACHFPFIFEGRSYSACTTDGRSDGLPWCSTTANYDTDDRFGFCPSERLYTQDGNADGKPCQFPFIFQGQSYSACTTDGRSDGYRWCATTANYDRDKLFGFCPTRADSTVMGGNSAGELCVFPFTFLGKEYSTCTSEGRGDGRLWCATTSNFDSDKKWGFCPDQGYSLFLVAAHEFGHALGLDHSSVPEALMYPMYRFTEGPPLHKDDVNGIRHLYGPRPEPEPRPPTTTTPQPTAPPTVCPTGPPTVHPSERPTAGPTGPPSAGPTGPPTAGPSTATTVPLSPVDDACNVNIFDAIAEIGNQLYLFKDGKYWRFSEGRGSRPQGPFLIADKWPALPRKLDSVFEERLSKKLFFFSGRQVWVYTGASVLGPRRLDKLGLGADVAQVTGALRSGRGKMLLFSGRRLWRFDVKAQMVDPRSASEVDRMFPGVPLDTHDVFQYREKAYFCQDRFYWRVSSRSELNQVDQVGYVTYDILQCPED
Sequence of MMP-3h (P08254 100-477): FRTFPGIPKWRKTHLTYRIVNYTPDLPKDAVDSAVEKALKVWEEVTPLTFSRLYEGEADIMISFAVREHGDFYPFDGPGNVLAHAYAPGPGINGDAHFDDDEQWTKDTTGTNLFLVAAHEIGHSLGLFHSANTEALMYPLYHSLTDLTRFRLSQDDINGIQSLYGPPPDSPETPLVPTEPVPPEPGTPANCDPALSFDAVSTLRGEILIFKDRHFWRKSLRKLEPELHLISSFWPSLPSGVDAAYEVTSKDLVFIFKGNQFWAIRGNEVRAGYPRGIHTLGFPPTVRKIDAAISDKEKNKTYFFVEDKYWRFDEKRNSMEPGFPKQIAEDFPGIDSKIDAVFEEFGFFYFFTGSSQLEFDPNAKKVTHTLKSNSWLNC
Sequence of MMP-8h (P22894 101-467): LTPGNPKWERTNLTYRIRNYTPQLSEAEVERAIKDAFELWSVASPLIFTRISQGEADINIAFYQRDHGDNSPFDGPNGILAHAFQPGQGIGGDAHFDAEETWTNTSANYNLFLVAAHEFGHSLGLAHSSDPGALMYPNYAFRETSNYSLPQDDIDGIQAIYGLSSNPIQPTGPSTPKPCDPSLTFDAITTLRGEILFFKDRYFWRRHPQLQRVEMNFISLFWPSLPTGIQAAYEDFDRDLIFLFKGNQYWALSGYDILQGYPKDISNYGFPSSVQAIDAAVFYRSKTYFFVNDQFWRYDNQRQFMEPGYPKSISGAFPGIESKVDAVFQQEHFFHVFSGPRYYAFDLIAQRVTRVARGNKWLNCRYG

Row | Structure (SMILES) | Ki (MMP-14h; read-out: Ki MMP-14h) [nM] | Ki (MMP-3h; read-out: Ki MMP-3h) [nM] | Ki (MMP-12h; read-out: Ki MMP-12h) [nM] | Ki (MMP-9h; read-out: Ki MMP-9h) [nM] | Ki (MMP-2h; read-out: Ki MMP-2h) [nM] | Ki (MMP-8h; read-out: Ki MMP-8h) [nM] | Ki (MMP-10h; read-out: Ki MMP-10h) [nM] | Ki (MMP-13h; read-out: Ki MMP-13h) [nM] | Ki (MMP-14h) [nM] | Ki (MMP-3h) [nM] | Ki (MMP-12h) [nM] | Ki (MMP-9h) [nM] | Ki (MMP-2h) [nM] | Ki (MMP-8h) [nM] | Ki (MMP-10h) [nM] | Ki (MMP-13h) [nM]
1 | COc1cccc(-c2ccc(CCC(=O)N[C@@H](CCC(=O)O)C(=O)N[C@@H](CCC(=O)O)C(N)=O)cc2)c1 [Compound 59, (S)-5-amino-4-((S)-4-carboxy-2-(3-(3′-methoxybiphenyl-4-yl)propanamido)butanamido)-5-oxopentanoic acid] | > 10000 | > 10000 | 35 | > 5000 | > 5000 | > 1000 | > 1000 | > 5000 |  |  |  |  |  |  |  | 
2 | NC(=O)CC[C@H](NC(=O)[C@H](CCC(N)=O)NC(=O)CCc1cc(-c2ccc(-c3ccccc3)cc2)no1)C(N)=O [Compound 22, (S)-2-(3-(3-(biphenyl-4-yl)isoxazol-5-yl)propanamido)-N^1-((S)-1,5-diamino-1,5-dioxopentan-2-yl)pentanediamide] | > 10000 | > 10000 | 830 | > 1000 | > 1000 | > 1000 | > 10000 | 436 |  |  |  |  |  |  |  | 
3 | NC(=O)[C@@H](CCC(=O)O)NC(=O)[C@@H](CCC(=O)O)NC(=O)CCc1cc(-c2ccc(-c3cccc(Cl)c3)cc2)no1 [Compound 7, (R)-5-amino-4-((R)-4-carboxy-2-(3-(3-(3′-chlorobiphenyl-4-yl)isoxazol-5-yl)propanamido)butanamido)-5-oxopentanoic acid] | > 10000 | 897 | 268 | > 5000 | 538 | > 1000 | 111 | 114 |  |  |  |  |  |  |  | 
4 | NC(=O)[C@H](CCC(=O)O)NC(=O)[C@H](CCC(=O)O)NC(=O)CCc1ccc(-c2cccc(N)c2)cc1 [Compound 53, (S)-5-amino-4-((S)-2-(3-(3′-aminobiphenyl-4-yl)propanamido)-4-carboxybutanamido)-5-oxopentanoic acid] | > 1000 | > 1000 | 190 | > 1000 | > 1000 | > 1000 | > 1000 | > 1000 |  |  |  |  |  |  |  | 
5 | NC(=O)[C@H](CC(=O)O)NC(=O)[C@H](CC(=O)O)NC(=O)CCc1cc(-c2ccc(-c3cccc(Cl)c3)cc2)no1 [Compound 10, (S)-4-amino-3-((S)-3-carboxy-2-(3-(3-(3′-chlorobiphenyl-4-yl)isoxazol-5-yl)propanamido)propanamido)-4-oxobutanoic acid] | > 1000 | 85 | 59 | > 1000 | 86 | 649 | 93 | 18 |  |  |  |  |  |  |  | 
6 | Cc1nc(-c2ccc(CCC(=O)N[C@@H](CCC(=O)O)C(=O)N[C@@H](CCC(=O)O)C(N)=O)cc2)no1 [Compound 34, (S)-5-amino-4-((S)-4-carboxy-2-(3-(4-(5-methyl-1,2,4-oxadiazol-3-yl)phenyl)propanamido)butanamido)-5-oxopentanoic acid] | > 1000 | > 1000 | 887 | > 5000 | > 5000 | > 1000 | > 1000 | > 1000 |  |  |  |  |  |  |  | 
7 | O=C(O)CC[C@H](NC(=O)CCc1ccc(-c2cccs2)cc1)C(=O)Nc1cccc(CC(=O)O)c1 [Compound 90, (S)-5-(3-(carboxymethyl)phenylamino)-5-oxo-4-(3-(4-(thiophen-2-yl)phenyl)propanamido)pentanoic acid] | 430 | > 1000 | 8 | 284 | 116 | 18 | 143 | 366 |  |  |  |  |  |  |  | 
8 | NC(=O)[C@H](CCC(=O)O)NC(=O)[C@H](CCC(=O)O)NC(=O)CCc1ccc(COc2ccccc2)cc1 [Compound 29, (S)-5-amino-4-((S)-4-carboxy-2-(3-(4-(phenoxymethyl)phenyl)propanamido)butanamido)-5-oxopentanoic acid] | > 5000 | > 10000 | 469 | > 1000 | > 1000 | > 1000 | > 1000 | 117 |  |  |  |  |  |  |  | 
9 | NC(=O)[C@@H](CCC(=O)O)NC(=O)[C@H](CCC(=O)O)NC(=O)CCc1cc(-c2ccc(-c3cccc(Cl)c3)cc2)no1 [Compound 5, (R)-5-amino-4-((S)-4-carboxy-2-(3-(3-(3′-chlorobiphenyl-4-yl)isoxazol-5-yl)propanamido)butanamido)-5-oxopentanoic acid] | > 1000 | 240 | 8.9 | > 1000 | 112 | 552 | 44 | 53 |  |  |  |  |  |  |  | 
10 | NC(=O)[C@H](CCC(=O)O)NC(=O)[C@H](CCC(=O)O)NC(=O)CCc1ccc(-c2nccs2)cc1 [Compound 37, (S)-5-amino-4-((S)-4-carboxy-2-(3-(4-(thiazol-2-yl)phenyl)propanamido)butanamido)-5-oxopentanoic acid] |  |  |  |  |  |  |  |  | > 1000 | > 5000 | 369 | > 1000 | 657 | > 1000 | > 1000 | 240
11 | CC(C)C[C@H](NC(=O)[C@H](CCC(=O)O)NC(=O)CCc1ccc(-c2ccc(-c3ccccc3)cc2)cc1)C(N)=O [Compound 69, (S)-5-((S)-1-amino-4-methyl-1-oxopentan-2-ylamino)-4-(3-(4′-phenylbiphenyl-4-yl)propanamido)-5-oxopentanoic acid] | > 5000 | 258 | 7.8 | > 1000 | 332 | 567 | 382 | 81 |  |  |  |  |  |  |  | 
12 | NC(=O)[C@H](CO)NC(=O)[C@H](CCC(=O)O)NC(=O)CCc1ccc(-c2cccs2)cc1 [Compound 87, (S)-5-((S)-1-amino-3-hydroxy-1-oxopropan-2-ylamino)-5-oxo-4-(3-(4-(thiophen-2-yl)phenyl)propanamido)pentanoic acid] | > 1000 | > 10000 | 16.4 | > 1000 | 147 | 47 | 742 | > 1000 |  |  |  |  |  |  |  | 
13 | NC(=O)[C@H](CCC(=O)O)NC(=O)[C@H](Cc1c[nH]cn1)NC(=O)CCc1ccc(-c2ccc(-c3ccccc3)cc2)cc1 [Compound 77, (S)-4-((S)-3-(1H-imidazol-4-yl)-2-(3-(4′-phenylbiphenyl-4-yl)propanamido)propanamido)-5-amino-5-oxopentanoic acid] | > 10000 | > 1000 | 234 | > 50000 | > 1000 | > 1000 | > 5000 | 377 |  |  |  |  |  |  |  | 
14 | NC(=O)CC[C@H](NC(=O)[C@H](CCC(=O)O)NC(=O)CCc1ccc(-c2ccc(-c3ccccc3)cc2)cc1)C(N)=O [Compound 62, (S)-5-((S)-1,5-diamino-1,5-dioxopentan-2-ylamino)-4-(3-(4′-phenylbiphenyl-4-yl)propanamido)-5-oxopentanoic acid] | > 1000 | 244 | 5.2 | > 1000 | 45 | 452 | 102 | 20 |  |  |  |  |  |  |  | 
15 | NC(=O)[C@H](CCC(=O)O)NC(=O)[C@H](CCC(=O)O)NC(=O)CCc1ccc(-c2ccsc2)cc1 [Compound 38, (S)-5-amino-4-((S)-4-carboxy-2-(3-(4-(thiophen-3-yl)phenyl)propanamido)butanamido)-5-oxopentanoic acid] |  |  |  |  |  |  |  |  | 410 | 337 | 12 | 141 | 225 | 52 | 446 | 532
